Test results as given in PubChem BioAssay (NCI).
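48-hour exposure; five concentrations; linearly interpolated endpoints. GI50 marks 50% less growth. Definition used: TGI = concentration required for complete inhibition of growth.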

Legend:
Assay in all cases: inhibition of tumour cell growth, NCI panel, 48 h
[1] = tested on: RXF 393 renal
[2] = tested on: EKVX NSCLC
[3] = tested on: SNB-75 CNS
[4] = tested on: TK-10 renal
[5] = tested on: NCI-H522 lung
[6] = tested on: KM12 colon
[7] = tested on: SW-620 colon
[8] = tested on: RPMI-8226 leukemia
[9] = tested on: MALME-3M melanoma
[10] = tested on: OVCAR-8 ovarian
[11] = tested on: HCT-116 colon
[12] = tested on: A549 NSCLC
[13] = tested on: K-562 leukemia
[14] = tested on: HCT-15 colon
[15] = tested on: UACC-62 melanoma
[16] = tested on: SF-539 CNS
[17] = tested on: UO-31 renal
[18] = tested on: SK-MEL-5 melanoma
[19] = tested on: MOLT-4 leukemia
[20] = tested on: HS 578T breast
[21] = tested on: SNB-19 CNS
[22] = tested on: DU-145 prostate
[23] = tested on: MDA-MB-231 breast
[24] = tested on: SK-MEL-28 melanoma
[25] = tested on: LOX IMVI melanoma
[26] = tested on: OVCAR-4 ovarian
[27] = tested on: MDA-MB-435
[28] = tested on: T-47D breast
[29] = tested on: U251 CNS
[30] = tested on: M14 melanoma
[31] = tested on: ACHN renal
[32] = tested on: BT-549 breast
[33] = tested on: MCF7 breast
[34] = tested on: SN12C renal
[35] = tested on: SK-MEL-2 melanoma
[36] = tested on: OVCAR-3 ovarian
[37] = tested on: IGROV1 ovarian
[38] = tested on: PC-3 prostate
[39] = tested on: OVCAR-5 ovarian
[40] = tested on: NCI-H460 lung
[41] = tested on: MDA-MB-468 breast
[42] = tested on: SF-295 CNS
[43] = tested on: A498 renal
[44] = tested on: HCC-2998 colon
[45] = tested on: COLO 205 colon
[46] = tested on: HL-60(TB) leukemia
[47] = tested on: SF-268 CNS

## COC[C@@H](CC(C)C)N=C1NC(=O)/C(=C/c2ccc3ncsc3c2)N1
[1]
  GI50: 1.91 µM
  TGI: 4.96 µM
[2]
  GI50: 3.27 µM
  TGI: 75.8 µM
[3]
  GI50: 1.04 µM
  TGI: 6.75 µM
[4]
  GI50: 2.95 µM
  TGI: > 100 µM
[5]
  GI50: 1.16 µM
  TGI: 4.89 µM
[6]
  GI50: 3.19 µM
  TGI: 34.5 µM
[7]
  GI50: 2.14 µM
  TGI: 20 µM
[8]
  GI50: 2.8 µM
  TGI: 9.52 µM
[9]
  GI50: 2.53 µM
  TGI: 7.29 µM
[10]
  GI50: 2.88 µM
  TGI: > 100 µM
[11]
  GI50: 1.45 µM
  TGI: 66.4 µM
[12]
  GI50: 2.03 µM
  TGI: > 100 µM
[13]
  GI50: 2.8 µM
  TGI: > 100 µM
[14]
  GI50: 2.66 µM
  TGI: > 100 µM
[15]
  GI50: 2.19 µM
  TGI: 8.63 µM
[16]
  GI50: 1.04 µM
  TGI: 4.54 µM
[17]
  GI50: 2.36 µM
  TGI: 6.7 µM
[18]
  GI50: 2.8 µM
  TGI: 8.85 µM
[19]
  GI50: 2.68 µM
  TGI: 15.4 µM
[20]
  GI50: 2.26 µM
  TGI: 8.33 µM
[21]
  GI50: 1.76 µM
  TGI: 48.3 µM
[22]
  GI50: 3.06 µM
  TGI: > 100 µM
[23]
  GI50: 3.65 µM
  TGI: > 100 µM
[24]
  GI50: 2.69 µM
  TGI: 8.69 µM
[25]
  GI50: 2.57 µM
  TGI: > 100 µM
[26]
  GI50: 6.14 µM
  TGI: 79.3 µM
[27]
  GI50: 3.56 µM
  TGI: 18.7 µM
[28]
  GI50: 1.96 µM
  TGI: 9.01 µM
[29]
  GI50: 2.58 µM
  TGI: > 100 µM
[30]
  GI50: 3.88 µM
  TGI: 22 µM
[31]
  GI50: 2.46 µM
  TGI: 11.4 µM
[32]
  GI50: 1.56 µM
  TGI: 7.59 µM
[33]
  GI50: 2.64 µM
  TGI: > 100 µM
[34]
  GI50: 2.71 µM
  TGI: 30 µM
[35]
  GI50: 1.88 µM
  TGI: 4.32 µM
[36]
  GI50: 1.22 µM
  TGI: 4.32 µM
[37]
  GI50: 2.42 µM
  TGI: 22 µM
[38]
  GI50: 3.9 µM
  TGI: 52.7 µM
[39]
  GI50: 3.04 µM
  TGI: > 100 µM
[40]
  GI50: 3.08 µM
  TGI: > 100 µM
[41]
  GI50: 1.98 µM
  TGI: 10.8 µM
[42]
  GI50: 3.46 µM
  TGI: > 100 µM
[43]
  GI50: 1.93 µM
  TGI: 7.93 µM
[44]
  GI50: 4.03 µM
  TGI: 56.4 µM
[45]
  GI50: 1.94 µM
  TGI: 6.28 µM
[46]
  GI50: 3.11 µM
  TGI: 8.36 µM
[47]
  GI50: 3.41 µM
  TGI: 19 µM
